Source: ChEMBL document CHEMBL4321834, “Glechomanamides A-C, Germacrane Sesquiterpenoids with an Unusual Δ8-7,12-Lactam Moiety from Salvia scapiformis and Their Antiangiogenic Activity” (J Nat Prod, 2019)
The source made the active and inactive calls. No cut-off for these calls is given here.

Legend:
[1] = target: Vascular endothelial growth factor receptor 2 (Homo sapiens) (UniProt P35968); assay: Inhibition of VEGFR2 in HUVEC assessed as inhibition of VEGF-induced tube formation incubated for 8 hrs by inverted microscopic method; assay type: cell-based
HUVEC [2] = assay: Decrease in GLUT1 expression in HUVEC at 1 to 100 uM preincubated for 30 mins followed by incubation with VEGF for 20 mins by Western blot analysis; assay type: functional, cell-based; conditions: Homo sapiens
HUVEC [3] = assay: Decrease in D-glucose-induced ANGPT2 mRNA expression in HUVEC at 10 uM incubated for 48 hrs in presence of […] by real time-PCR analysis; assay type: functional, cell-based; conditions: Homo sapiens
HUVEC [4] = assay: Decrease in total VEGF expression in HUVEC at 1 to 100 uM preincubated for 30 mins followed by incubation with VEGF for 20 mins by Western blot analysis; assay type: functional, cell-based; conditions: Homo sapiens
HUVEC [5] = assay: Decrease in HK2 expression in HUVEC at 1 to 100 uM preincubated for 30 mins followed by incubation with VEGF for 20 mins by Western blot analysis; assay type: functional, cell-based; conditions: Homo sapiens
HUVEC [6] = assay: Decrease in BMP4 expression in HUVEC at 1 to 100 uM preincubated for 30 mins followed by incubation with VEGF for 20 mins by Western blot analysis; assay type: functional, cell-based; conditions: Homo sapiens
[7] = target: Vascular endothelial growth factor receptor 2 (Homo sapiens) (UniProt P35968); assay: Inhibition of VEGF-induced VEGFR2 phosphorylation in HUVEC at 1 to 100 uM preincubated for 30 mins followed by stimulation with VEGF for 20 mins by Western blot analysis; assay type: cell-based
HUVEC [8] = assay: Decrease in D-glucose-induced BMP4 mRNA expression in HUVEC at 10 uM incubated for 48 hrs in presence of […] by real time-PCR analysis; assay type: functional, cell-based; conditions: Homo sapiens
[9] = target: Vascular endothelial growth factor receptor 2 (Homo sapiens) (UniProt P35968); assay: Inhibition of VEGFR2 in HUVEC assessed as inhibition of VEGF-induced tube formation at 80 uM incubated for 8 hrs by inverted microscopic method; assay type: cell-based
HUVEC [10] = assay: Decrease in D-glucose-induced BMP4 mRNA expression in HUVEC at 500 uM incubated for 48 hrs in presence of […] by real time-PCR analysis; assay type: functional, cell-based; conditions: Homo sapiens
HUVEC [11] = assay: Decrease in D-glucose-induced ANGPT2 mRNA expression in HUVEC at 500 uM incubated for 48 hrs in presence of […] by real time-PCR analysis; assay type: functional, cell-based; conditions: Homo sapiens

Chain of Vascular endothelial growth factor receptor 2 (Homo sapiens) (P35968 whole entry): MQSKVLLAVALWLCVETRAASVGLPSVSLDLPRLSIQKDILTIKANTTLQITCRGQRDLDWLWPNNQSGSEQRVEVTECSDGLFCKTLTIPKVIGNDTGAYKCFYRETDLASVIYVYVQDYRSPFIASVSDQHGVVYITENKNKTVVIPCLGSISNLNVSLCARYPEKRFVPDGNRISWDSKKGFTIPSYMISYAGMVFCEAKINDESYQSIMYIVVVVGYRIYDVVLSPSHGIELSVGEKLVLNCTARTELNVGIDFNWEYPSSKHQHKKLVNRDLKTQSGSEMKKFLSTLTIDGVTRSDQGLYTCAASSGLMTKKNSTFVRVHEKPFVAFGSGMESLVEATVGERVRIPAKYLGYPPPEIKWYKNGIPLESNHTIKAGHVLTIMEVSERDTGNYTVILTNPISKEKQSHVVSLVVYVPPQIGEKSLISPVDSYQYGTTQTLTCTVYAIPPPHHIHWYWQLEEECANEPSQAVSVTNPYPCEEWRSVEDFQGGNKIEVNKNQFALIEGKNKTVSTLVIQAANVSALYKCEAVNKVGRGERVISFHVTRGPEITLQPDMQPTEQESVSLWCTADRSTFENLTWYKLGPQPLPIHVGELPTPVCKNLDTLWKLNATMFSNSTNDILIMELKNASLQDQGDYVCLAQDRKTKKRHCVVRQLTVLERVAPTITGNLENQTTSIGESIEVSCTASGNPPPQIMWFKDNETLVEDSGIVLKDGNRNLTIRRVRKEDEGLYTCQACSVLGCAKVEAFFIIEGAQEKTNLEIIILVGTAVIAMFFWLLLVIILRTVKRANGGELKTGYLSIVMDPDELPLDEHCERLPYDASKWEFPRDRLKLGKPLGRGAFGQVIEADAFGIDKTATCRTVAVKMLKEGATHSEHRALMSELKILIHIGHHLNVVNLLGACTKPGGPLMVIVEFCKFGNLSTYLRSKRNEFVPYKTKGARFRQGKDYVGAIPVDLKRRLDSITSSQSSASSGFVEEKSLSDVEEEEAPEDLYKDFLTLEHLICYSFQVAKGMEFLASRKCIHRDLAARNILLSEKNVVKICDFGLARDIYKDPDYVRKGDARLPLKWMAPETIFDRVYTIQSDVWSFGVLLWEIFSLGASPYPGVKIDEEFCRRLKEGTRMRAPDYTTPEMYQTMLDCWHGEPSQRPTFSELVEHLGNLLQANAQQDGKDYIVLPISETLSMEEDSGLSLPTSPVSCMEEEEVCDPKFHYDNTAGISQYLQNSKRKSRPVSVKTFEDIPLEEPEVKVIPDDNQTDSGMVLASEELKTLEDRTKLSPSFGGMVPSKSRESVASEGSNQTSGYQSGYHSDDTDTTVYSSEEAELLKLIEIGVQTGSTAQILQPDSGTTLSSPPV

inhibition [1] | inhibition [7] | inhibition [9] | Structure (SMILES) | inhibition (HUVEC [2]) | inhibition (HUVEC [3]) | inhibition (HUVEC [4]) | inhibition (HUVEC [5]) | inhibition (HUVEC [6]) | inhibition (HUVEC [8]) | inhibition (HUVEC [10]) | inhibition (HUVEC [11])
Dose-dependent effect | Active | Active | C/C=C(\C)C(=O)O[C@@H]1C2=C(C)C(=O)N[C@]2(O)C[C@@]2(C)O[C@@H]2CC[C@@]2(C)O[C@H]12 | Active | Active | Active | Active | Active | Active | – | –
– | – | – | CN(C)C(=N)NC(=N)N | – | – | – | – | – | – | Active | Active
